Earlier results, collected in patent publication US20110020480A1, “USE OF BENZOXAZINOIDS-CONTAINING CEREAL GRAIN PRODUCTS FOR HEALTH-IMPROVING PURPOSES” (priority 2008, published 2011).

What was measured:
[1] = daily dose

COc1ccc2[nH]c(=O)oc2c1 [6-MBOA, 6-methoxy-benzoxazolin-2-one]
effect on depression or mood (human males): significant positive effect
therapeutic dose for treating depressive states of mind [1]: approx. 15 mg daily
cumulative daily dose for obtaining appetite suppression (overweight women): 15 µg
